Laboratory results as given in patent US20250319063A1, “METHODS AND COMPOUNDS FOR RESTORING MUTANT P53 FUNCTION” (PMV PHARMACEUTICALS, INC., priority 2022, published 2025).
Entries after “also recorded” stand apart in the source; their conditions may differ. Read-outs that look alike come from different tables or passages of the source.

Experiment: Pharmacokinetic analysis of patient plasma (LC/MS/MS, noncompartmental analysis)
Assay type: in vivo
Settings: for half-life: human, plasma
Source text: Serial blood samples for PK assessments were collected from all patients, including adolescents. Serial blood samples from all patients were also collected for PDc assessment of response to Compound 1. Pre- and on-treatment tumor biopsies for PDc assessment were optional. The relationship between plasma Compound 1 concentrations and pharmacodynamic biomarkers of response were explored. When the MTD was established, this cohort was expanded up to 12 patients. At least one additional cohort at a total daily dose below the MTD and considered to be active were expanded up to 12 patients. These expanded cohorts provided additional information about the relationship between dose, safety/tolerability, and efficacy to inform the selection of RP2D. Data from Phase 1 are reviewed to assess the benefit-risk for each dose level when selecting RP2D. The RP2D is determined as the dose resulting in the best therapeutic window for Compound 1 based on the review of all available safety, PK, PDc, and preliminary efficacy data. The RP2D can be the same as the MTD or below the MTD.
Compound 1 concentration data were summarized by dose level and Study Day using nominal time points. Individual and mean concentrations versus nominal time plots were presented by dose level. Pharmacokinetic parameter values were derived by non-compartmental methods by a validated pharmacokinetic analysis program. Actual times were used for all formal analyses. PK parameters were summarized by dose level. Individual values were listed for each PK parameter (e.g., Cmax, Tmax, AUC0-T, AUCtau, Ctrough/Ctau, accumulation ratios) by dose level, and the following (non-model-based) descriptive statistics were provided: N (number of patients with non-missing data), arithmetic mean, standard deviation, arithmetic percent coefficient of variation (CV) (calculated as 100×standard deviation/arithmetic mean), median, minimum, maximum, geometric mean, and geometric percent CV (calculated as: […]
Plasma samples were analyzed for levels of Compound 1 via a validated LC/MS/MS method. The concentration data were analyzed using Phoenix version 8.2 via noncompartmental analysis.

In the case of `CNC(=O)c1ccc(NCC#Cc2cc3c(N[C@@H]4CCN(C)C[C@@H]4F)cccc3n2CC(F)(F)F)c(OC)c1` [Compound 1, 4-((3-(4-(((3S,4R)-3-fluoro-1-methylpiperidin-4-yl)amino)-1-(2,2,2-trifluoroethyl)-1H-indol-2-yl)prop-2-yn-1-yl)amino)-3-methoxy-N-methylbenzamide], the Exposures (2,000 mg QD, 2,500 mg QD, and 1,500 mg BID dose groups) is reported as “Exposures were efficacious”, the half-life (oral, patients, Day 15, read-out: Median half-life (converted)) is reported as 19 h and the half-life (patients, oral QD or BID dosing, read-out: Half-lives) is reported as 10 to 34 h. The “dose proportionality of exposure” value (patients, Day 1 through D15) was “dose proportional increases in Cmax and AUC values; also recorded: linear PK over the therapeutic dose range”.
